Data: patent US11446287B2, “Compounds and methods for EP300 or CBP modulation and indications therefor” (Opna Immuno-Oncology SA, priority 2019, dated 2022)

Molecular target: T1, Recombinant human CBP containing the bromodomain (CBP-BD (1043-1159)) (Homo sapiens, UniProt Q92793)
T1 construct: Recombinant human CBP bromodomain (CBP-BD (1043-1159)); made in house; host or cells: E. coli BL21-CodonPlus (DE3), modified pET vector
Assay: CBP Alphascreen binding assay
Conditions: read-out: CREBBP (CBP) IC50
Summary of the method: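 Buffer: 50 mM HEPES pH 7.5, 50 mM NaCl, 0.01% BSA, 0.01% Triton X-100, 2 mM DTT. The signal was normalised to plate controls and fitted with a four-parameter curve to give IC50.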

T1 sequence (Q92793 1081-1197): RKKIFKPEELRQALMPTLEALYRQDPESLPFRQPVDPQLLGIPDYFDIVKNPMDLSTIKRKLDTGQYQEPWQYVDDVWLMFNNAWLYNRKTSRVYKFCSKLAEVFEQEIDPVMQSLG

Row | SMILES | IC50
1 | Cc1noc(C)c1-c1cnc2c(c1)c(C#CC(=O)O)cn2Cc1ccccc1 [P-0069, 3-(1-benzyl-5-(3,5-dimethylisoxazol-4-yl)-1H-pyrrolo[2,3-b]pyridin-3-yl)propiolic acid] | 0.0001 to 1 µM
2 | Cc1noc(C)c1-c1cnc2c(c1)c(-c1cccc(C(=O)O)c1)cn2Cc1cccc(Cl)c1 [P-0061, 3-(1-(3-chlorobenzyl)-5-(3,5-dimethylisoxazol-4-yl)-1H-pyrrolo[2,3-b]pyridin-3-yl)benzoic acid] | 0.0001 to 1 µM
3 | Cc1noc(C)c1-c1cnc2c(c1)c(-c1ccc(C(=O)O)cc1OC(F)(F)F)cn2[C@@H](C)c1ccccn1 [P-0070, (S)-4-(5-(3,5-dimethylisoxazol-4-yl)-1-(1-(pyridin-2-yl)ethyl)-1H-pyrrolo[2,3-b]pyridin-3-yl)-3-(trifluoromethoxy)benzoic acid] | 0.0001 to 1 µM
4 | COC(=O)c1ccc(-c2cn(S(=O)(=O)c3ccc(C)cc3)c3ncc(-c4c(C)noc4C)cc23)cc1 [P-0005, methyl 4-(5-(3,5-dimethylisoxazol-4-yl)-1-tosyl-1H-pyrrolo[2,3-b]pyridin-3-yl)benzoate] | 8 to 1000 µM
5 | Cc1noc(C)c1-c1cnc2c(c1)c(-c1ccc(C(=O)O)cc1)cn2C(C)c1ccccn1 (stereo not shown) [P-0080, 4-(5-(3,5-dimethylisoxazol-4-yl)-1-(1-(pyridin-2-yl)ethyl)-1H-pyrrolo[2,3-b]pyridin-3-yl)benzoic acid] | 1 to 8 µM
6 | Cc1cccc(Cn2cc(-c3cccc(C(=O)O)c3)c3cc(-c4c(C)noc4C)cnc32)c1 [P-0062, 3-(5-(3,5-dimethylisoxazol-4-yl)-1-(3-methylbenzyl)-1H-pyrrolo[2,3-b]pyridin-3-yl)benzoic acid] | 0.0001 to 1 µM
7 | Cc1noc(C)c1-c1cnc2c(CC3CCC3)cn(-c3ccc(C(=O)O)cc3OC(F)(F)F)c2c1 [P-0066, 4-(3-(cyclobutylmethyl)-6-(3,5-dimethylisoxazol-4-yl)-1H-pyrrolo[3,2-b]pyridin-1-yl)-3-(trifluoromethoxy)benzoic acid] | 0.0001 to 1 µM
8 | Cc1noc(C)c1-c1cnc2c(c1)c(-c1ccc(C(=O)O)cc1)cn2[C@@H](C)c1ccccn1 [P-0001, (S)-4-(5-(3,5-dimethylisoxazol-4-yl)-1-(1-(pyridin-2-yl)ethyl)-1H-pyrrolo[2,3-b]pyridin-3-yl)benzoic acid] | 0.0001 to 1 µM
9 | Cc1noc(C)c1-c1cnc2c(CC3CCC3)cn(-c3ccc(S(C)(=O)=O)c(F)c3)c2c1 [P-0068, 4-(3-(cyclobutylmethyl)-1-(3-fluoro-4-(methylsulfonyl)phenyl)-1H-pyrrolo[3,2-b]pyridin-6-yl)-3,5-dimethylisoxazole] | 0.0001 to 1 µM
10 | CNS(=O)(=O)c1cccc(-c2cn(Cc3ccccc3)c3ncc(-c4c(C)noc4C)cc23)c1 [P-0082, 3-(1-benzyl-5-(3,5-dimethylisoxazol-4-yl)-1H-pyrrolo[2,3-b]pyridin-3-yl)-N-methylbenzenesulfonamide] | 8 to 1000 µM
11 | Cc1noc(C)c1-c1cnc2c(CC3CCC3)cn(-c3ccc(C(=O)O)cc3OC(F)F)c2c1 [P-0064, 4-(3-(cyclobutylmethyl)-6-(3,5-dimethylisoxazol-4-yl)-1H-pyrrolo[3,2-b]pyridin-1-yl)-3-(difluoromethoxy)benzoic acid] | 0.0001 to 1 µM
12 | Cc1noc(C)c1-c1cnc2c(C(=O)c3cccc(Cl)c3)cn(-c3ccnc(C(=O)O)c3)c2c1 [P-0088, 4-(3-(3-chlorobenzoyl)-6-(3,5-dimethylisoxazol-4-yl)-1H-pyrrolo[3,2-b]pyridin-1-yl)picolinic acid] | 0.0001 to 1 µM
13 | Cc1noc(C)c1-c1cnc2c(c1)c(-c1c(F)ccc(NS(C)(=O)=O)c1F)cn2C(C)c1ccccn1 (stereo not shown) [P-0096, N-(3-(5-(3,5-dimethylisoxazol-4-yl)-1-(1-(pyridin-2-yl)ethyl)-1H-pyrrolo[2,3-b]pyridin-3-yl)-2,4-difluorophenyl)methanesulfonamide] | 1 to 8 µM
14 | Cc1noc(C)c1-c1cnc2c(c1)c(-c1c(Cl)cc(C(=O)O)cc1Cl)cn2C(C)c1ccccn1 (stereo not shown) [P-0095, 3,5-dichloro-4-(5-(3,5-dimethylisoxazol-4-yl)-1-(1-(pyridin-2-yl)ethyl)-1H-pyrrolo[2,3-b]pyridin-3-yl)benzoic acid] | 0.0001 to 1 µM
15 | Cc1noc(C)c1-c1cnc2c(CC3CC3)cn(-c3ccnc(C(=O)O)c3)c2c1 [P-0065, 4-(3-(cyclopropylmethyl)-6-(3,5-dimethylisoxazol-4-yl)-1H-pyrrolo[3,2-b]pyridin-1-yl)picolinic acid] | 0.0001 to 1 µM
16 | Cc1noc(C)c1-c1cnc2c(c1)c(-c1cccc(S(N)(=O)=O)c1)cn2Cc1ccccc1 [P-0081, 3-(1-benzyl-5-(3,5-dimethylisoxazol-4-yl)-1H-pyrrolo[2,3-b]pyridin-3-yl)benzenesulfonamide] | 1 to 8 µM
17 | Cc1noc(C)c1-c1cnc2c(CC3CCC3)cn(-c3ccnc(C#N)c3)c2c1 [P-0077, 4-(3-(cyclobutylmethyl)-6-(3,5-dimethylisoxazol-4-yl)-1H-pyrrolo[3,2-b]pyridin-1-yl)picolinonitrile] | 0.0001 to 1 µM

Row | SMILES | IC50
18 | COc1cccc(Cn2cc(-c3cccc(C(=O)O)c3)c3cc(-c4c(C)noc4C)cnc32)c1 [P-0056, 3-(5-(3,5-dimethylisoxazol-4-yl)-1-(3-methoxybenzyl)-1H-pyrrolo[2,3-]pyridin-3-yl)benzoic acid] | 0.0001 to 1 µM
19 | Cc1noc(C)c1-c1cnc2c(C(=O)c3ccccc3Cl)cn(-c3ccnc(C(=O)O)c3)c2c1 [P-0089, 4-(3-(2-chlorobenzoyl)-6-(3,5-dimethylisoxazol-4-yl)-1H-pyrrolo[3,2-b]pyridin-1-yl)picolinic acid] | 0.0001 to 1 µM
20 | Cc1noc(C)c1-c1cnc2c(c1)c(-c1ccc(C(=O)O)cc1)cn2C(c1ccccn1)C1CCCC1 (stereo not shown) [P-0002, 4-(1-(cyclopentyl(pyridin-2-yl)methyl)-5-(3,5-dimethylisoxazol-4-yl)-1H-pyrrolo[2,3-b]pyridin-3-yl)benzoic acid] | 0.0001 to 1 µM
21 | Cc1noc(C)c1-c1cnc2c(c1)c(-c1ccc(C(=O)O)cc1OC(F)F)cn2[C@@H](C)c1ccccn1 [P-0071, (S)-3-(difluoromethoxy)-4-(5-(3,5-dimethylisoxazol-4-yl)-1-(1-(pyridin-2-yl)ethyl)-1H-pyrrolo[2,3-b]pyridin-3-yl)benzoic acid] | 0.0001 to 1 µM
22 | Cc1noc(C)c1-c1cnc2c(c1)c(-c1cccc(C(=O)O)c1)cn2Cc1cccc(C(F)(F)F)c1 [P-0063, 3-(5-(3,5-dimethylisoxazol-4-yl)-1-(3-(trifluoromethyl)benzyl)-1H-pyrrolo[2,3-b]pyridin-3-yl)benzoic acid] | 0.0001 to 1 µM
23 | Cc1noc(C)c1-c1cnc2c(c1)c(-c1cccc(C(=O)O)c1)cn2Cc1cccc(F)c1 [P-0060, 3-(5-(3,5-dimethylisoxazol-4-yl)-1-(3-fluorobenzyl)-1H-pyrrolo[2,3-b]pyridin-3-yl)benzoic acid] | 0.0001 to 1 µM
24 | Cc1noc(C)c1-c1cnc2c(C(=O)C3CC3)c(O)n(-c3ccnc(C(=O)O)c3)c2c1 [P-0084, 4-(3-(cyclopropanecarbonyl)-6-(3,5-dimethylisoxazol-4-yl)-2-hydroxy-1H-pyrrolo[3,2-b]pyridin-1-yl)picolinic acid] | 0.0001 to 1 µM
25 | Cc1noc(C)c1-c1cnc2c(c1)c(-c1cccc(C(=O)O)c1)cn2C(C1CCC1)C1CCC1 [P-0072, 3-(1-(dicyclobutylmethyl)-5-(3,5-dimethylisoxazol-4-yl)-1H-pyrrolo[2,3-b]pyridin-3-yl)benzoic acid] | 0.0001 to 1 µM
26 | Cc1noc(C)c1-c1cnc2c(c1)c(-c1c(F)cc(C(=O)O)cc1F)cn2C(C)c1ccccn1 (stereo not shown) [P-0094, 4-(5-(3,5-dimethylisoxazol-4-yl)-1-(1-(pyridin-2-yl)ethyl)-1H-pyrrolo[2,3-b]pyridin-3-yl)-3,5-difluorobenzoic acid] | 0.0001 to 1 µM
27 | Cc1noc(C)c1-c1cnc2c(c1)c(-c1cccc(C(=O)NC#N)c1)cn2Cc1ccccc1 [P-0078, 3-(1-benzyl-5-(3,5-dimethylisoxazol-4-yl)-1H-pyrrolo[2,3-b]pyridin-3-yl)-N-cyanobenzamide] | 1 to 8 µM
28 | Cc1noc(C)c1-c1cnc2c(c1)c(-c1cccc(C(=O)NS(C)(=O)=O)c1)cn2Cc1ccccc1 [P-0092, 3-(1-benzyl-5-(3,5-dimethylisoxazol-4-yl)-1H-pyrrolo[2,3-b]pyridin-3-yl)-N-(methylsulfonyl)benzamide] | 1 to 8 µM
29 | Cc1noc(C)c1-c1cnc2c(c1)c(-c1cccc(C(=O)NO)c1)cn2Cc1ccccc1 [P-0079, 3-(1-benzyl-5-(3,5-dimethylisoxazol-4-yl)-1H-pyrrolo[2,3-b]pyridin-3-yl)-N-hydroxybenzamide] | 0.0001 to 1 µM
30 | Cc1noc(C)c1-c1cnc2c(c1)c(-c1cccc(C(=O)O)c1)cn2C(=O)c1ccccc1 [P-0085, 3-(1-benzoyl-5-(3,5-dimethylisoxazol-4-yl)-1H-pyrrolo[2,3-b]pyridin-3-yl)benzoic acid] | 1 to 8 µM
31 | Cc1noc(C)c1-c1cnc2c(c1)c(-c1cccc(C(=O)O)c1)cn2Cc1cccc(OC(F)(F)F)c1 [P-0059, 3-(5-(3,5-dimethylisoxazol-4-yl)-1-(3-(trifluoromethoxy)benzyl)-1H-pyrrolo[2,3-b]pyridin-3-yl)benzoic acid] | 0.0001 to 1 µM
32 | Cc1noc(C)c1-c1cnc2c(c1)c(-c1cccc(S(=O)(=O)NC3CC3)c1)cn2Cc1ccccc1 [P-0083, 3-(1-benzyl-5-(3,5-dimethylisoxazol-4-yl)-1H-pyrrolo[2,3-b]pyridin-3-yl)-N-cyclopropylbenzenesulfonamide] | 1 to 8 µM
33 | Cc1noc(C)c1-c1cnc2c(CC3CCC3)cn(-c3c(C(=O)O)ccc(Br)c3F)c2c1 [P-0086, 4-bromo-2-(3-(cyclobutylmethyl)-6-(3,5-dimethylisoxazol-4-yl)-1H-pyrrolo[3,2-b]pyridin-1-yl)-3-fluorobenzoic acid] | 0.0001 to 1 µM
34 | Cc1noc(C)c1-c1cnc2c(CC3CCC3)cn(-c3c(Cl)cc(C(=O)O)cc3Cl)c2c1 [P-0074, 3,5-dichloro-4-(3-(cyclobutylmethyl)-6-(3,5-dimethylisoxazol-4-yl)-1H-pyrrolo[3,2-b]pyridin-1-yl)benzoic acid] | 0.0001 to 1 µM
